# Reference: paper PMC6389950, “Small Peptide Ligands for Targeting EGFR in Triple Negative Breast Cancer Cells” (Scientific Reports, 2019)
# Where a SMILES comes first, the peptide text is derived from it. The star is where a group is joined. FITC = O=C1OC2(c3ccc(O)cc3Oc3cc(O)ccc32)c2ccc(NC(=S)*)cc21; βAla = NCCC(=O)O
# How the values were obtained:
# [1] = Peptide stability in human serum; type: in vitro ADME; conditions: preliminary results, data not shown
# [2] = tested on: MDA-MB-468; test: Peptide array-whole cell binding assay; type: cell-based; conditions: peptide conjugated to cellulose membrane (amino-PEG500), no free C-terminus; cells 75 × 10^3 cells/mL, 37 °C, 4 h; CyQUANT fluorescence relative to peptide 1; spots in duplicate
# Source text: (§1) Peptide array on the cellulose membrane was used to evaluate the binding of each peptide to different cell lines. The amino functionalized cellulose membrane provided by Intavis is acid hardened providing high stability at pH range from 1–14, permitting its use in acidic or basic conditions while maintaining membrane integrity. The PEG linker on membrane surface functions as a hydrophilic spacer between the peptide and the solid surface (membrane) reducing background signal. Cell lines were carefully selected for screening peptides as our goal here is to screen peptides with high binding/uptake by the TNBC cells. […] EGFR is overexpressed by a number of TNBC cells such as MDA-MB-468 (obtained from primary tumor source) and MDA-MB-231 (from metastasis cancer tissue)[13],[14]. While other TNBC cells like MDA-MB-436 (obtained from metastasis cancer tissue) are known to express low levels of EGFR. Non-tumorigenic epithelial MCF10A and MCF12A cells derived from the breast tissue also express low levels of EGFR[14],[34]. We selected two TNBC cell lines with relatively high expression of EGFR expression (MDA-MB-468/231) and a TNBC cell line with low level of EGFR expression (MDA-MB-436) for the peptide array screening experiments. In addition, non- tumorigenic cell line, MCF-10A was used for comparison. These four cell lines were allowed to bind the membrane by seeding the cells on the membrane and the bound cells were labeled with a fluorescent dye CyQUANT.
# (§2) For the binding assay, the peptide array was incubated with the cells in sequential steps as described previously. Briefly peptide array membrane was dipped in ethanol for 30 s to remove any precipitation on it, followed by dipping in sterile PBS (pH 7.4) for another 30 min. The cells (75 × 10^3 cells/mL) were seeded directly on the membrane in a sterile plate and incubated at 37 °C for 4 h. The unbound cells were washed out with sterile PBS (pH 7.4). Thereafter the membrane was placed in a sealed bag and transferred to −80 °C freezer for 2 h. Subsequently it was defrosted at room temperature and treated with CyQUANT solution. The CyQUANT concentration was optimized based on the manufacturer’s protocol and preliminary experiments. Membrane was incubated at 37 °C for 30 min with the dye. After washing with sterile PBS and air drying using blow dryer, the membrane was scanned using Bio-rad chemidoc imager with image lab software. The settings were adjusted based on the excitation (465 nm) and emission (535 nm) wavelengths of CyQUANT dye. Epi Blue was selected for the light source (455–485 nm) and filter number 4 (blue filter, 518–546 nm) was employed. The fluorescence intensity of cancer cells read using chemidoc imager was normalized using the non-cancer cell fluorescence intensity. Eventually relative fluorescence was assessed to select peptides with high affinity to cancer cells and low or minimal binding to normal cells.
# [3] = tested on: MCF-10A; test: Peptide array-whole cell binding assay; type: cell-based; conditions: non-tumorigenic cells; peptide conjugated to cellulose membrane (amino-PEG500); cells 75 × 10^3 cells/mL, 37 °C, 4 h; CyQUANT fluorescence relative to peptide 1; spots in duplicate
# Source text: as §1, §2
# [4] = tested on: MDA-MB-436; test: Peptide array-whole cell binding assay; type: cell-based; conditions: peptide conjugated to cellulose membrane (amino-PEG500), no free C-terminus; cells 75 × 10^3 cells/mL, 37 °C, 4 h; CyQUANT fluorescence relative to peptide 1; spots in duplicate
# Source text: as §1, §2
# [5] = tested on: MDA-MB-231; test: Peptide array-whole cell binding assay; type: cell-based; conditions: peptide conjugated to cellulose membrane (amino-PEG500), no free C-terminus; cells 75 × 10^3 cells/mL, 37 °C, 4 h; CyQUANT fluorescence relative to peptide 1; spots in duplicate
# Source text: as §1, §2
# [6] = tested on: MDA-MB-468; test: In vitro cellular uptake of FITC-labeled peptides by FACS; type: cell-based; conditions: 30 min, 37 °C; for Mean Fluorescence Intensity ± SD MDA-MB-468: soluble FITC-β-alanine-labeled peptide 1 µM, FBS free media, 10^5 or 10^6 cells/well, MFI of FITC positive cells, three independent experiments ± SD
# Source text: (§3) Flow cytometry was employed to determine the cellular uptake of selected six peptides (1, 4, 22, 23, 26, and 27). As opposed to the membrane bound (conjugated) peptide in library screening, the peptides used here were soluble (or free) FITC-labeled peptides. Peptides were labeled with FITC in the N-terminal and a β-alanine residue was used as a spacer between the FITC and the peptide sequence. The same three TNBC cells lines (MDA-MB-468, MDA-MB-231 and MDA-MB-436) used for peptide array screening were used here as well. Peptides 1 and 4 were used as controls. […] Peptide 4 was included in this experiment to compare the uptake of this keratin 1 binding peptide with the EGFR binding peptides. Peptides 22, 23, 26, and 27 were identified as the best EGFR binding peptides from the library screening.
# (§4) Fluorescence-activated cell-sorting (FACS) analysis was used to check the uptake of the FITC-peptides. The stock solution for the FITC-peptides (100 μM) was prepared by dissolving the peptides in sterile water/10% DMSO. MDA-MB-231, MDA-MB-468 and MDA-MB-436 cells were seeded in 6-well plates with 10^6/10^5 cells/well containing 3 mL media and the plates were incubated at 37 °C overnight. The following day, the media was replaced with fresh FBS free media (1 mL) containing FITC-labeled peptide (1 µM), and further incubated at 37 °C for 30 min. Thereafter the media was removed and the cells were washed with cold PBS to remove any remaining peptide. Adequate trypsin was added to each well followed by 3–5 min incubation at 37 °C. Trypsin was immediately neutralized by adding media and the cell suspension was transferred into centrifuge tubes. The cells were separated and washed twice with FACS sheath fluid. The control cells were treated similarly but without peptide. Two wells were assigned for each peptide and each well sample was read twice in FACS machine. The experiment was repeated once. MFI represents the average of all wells for each peptide.
# [7] = tested on: MDA-MB-436; test: as above; type: cell-based; conditions: soluble FITC-β-alanine-labeled peptide 1 µM, 30 min, 37 °C, FBS free media, 10^5 or 10^6 cells/well, MFI of FITC positive cells, three independent experiments ± SD
# Source text: as §3, §4
# [8] = tested on: MDA-MB-231; test: as above; type: cell-based; conditions: 30 min, 37 °C; for Mean Fluorescence Intensity ± SD MDA-MB-231: soluble FITC-β-alanine-labeled peptide 1 µM, FBS free media, 10^5 or 10^6 cells/well, MFI of FITC positive cells, three independent experiments ± SD
# Source text: as §3, §4
# [9] = molecular target: T1, EGFR on MDA-MB-231 cells (Homo sapiens, UniProt P00533); test: Competitive uptake by FACS with excess EGF protein or unlabeled peptide 1; type: cell-based; conditions: MDA-MB-231 cells (10^5), FITC-peptide 1 μM, 30 min
# T1 construct: host or cells: MDA-MB-231
# Method: The specific uptake of peptides 1 and 22 was evaluated using a competitive assay. First, MDA-MB-231 cells were incubated with peptide FITC-1 in the presence and absence of excess EGF protein (20-fold). […] The competition experiment was also repeated with peptide 22 in the presence and absence of EGF protein.
# In addition, MDA-MB-231 cells (10^5) were incubated with varying concentration of peptide FITC-22 (0–6 μM). The resulting samples were treated as above, and the experiment was repeated. The fluorescence intensity of the FITC peptide-cell complex was plotted against peptide concentration. […] Control group was treated with media alone containing ~5% DMSO. Each group was done in duplicate and the experiment was repeated once.
# [10] = tested on: breast cancer cells; conditions: compared to linear peptide 18–4; cited from earlier work
# Source text: (§5) We found a region in EGF that may have structural similarity to peptide 22 (Fig. 4b). There is low sequence homology between the two sequences (peptide 22 and 12-residue region of EGF), however, based on the pr ...
# [11] = cited from earlier work
# Source text: as §5
# [12] = molecular target: T2, epidermal growth factor receptor (EGFR or ErbB1) (human (endogenous in MDA-MB-468, …, UniProt P00533 25-1210)); test: flow cytometry on cells; competition: MDA-MB-231 cells (10^5); EGF (20 µM, 20-fold excess) or unlabeled peptide 1 (100 µM, 100-fold excess) added first, then FITC-labelled peptide 1 or 22 (1 µM), 30 min; conditions: one partner purified
# T2 construct: epidermal growth factor receptor, endogenous on human breast cell lines; expression levels are cited, not measured here; no isolated EGFR was used
# [13] = soluble FITC-labeled peptide 1 µM
molecule,measurement,setting,value
CC[C@H](C)[C@H](NC(=O)[C@@H](NC(=O)[C@H](CC(N)=O)NC(=O)[C@H](CCC(=O)O)NC(=O)[C@@H]1CCCN1C(=O)[C@@H](NC(=O)[C@H](Cc1ccc(O)cc1)NC(=O)CNC(=O)[C@H](Cc1ccc(O)cc1)NC(=O)[C@H](Cc1c[nH]c2ccccc12)NC(=O)[C@H](Cc1c[nH]cn1)NC(=O)[C@@H](N)Cc1ccc(O)cc1)[C@@H](C)O)C(C)C)C(=O)O [Peptide 22] (H-YHWYGYTPENVI-OH),Stability in the presence of human serum (in words),[1],short half-life
same,Relative Cell Adhesion MDA-MB-468,[2],1.6
same,Relative Cell Adhesion MCF-10A,[3],1.2
same,Relative Cell Adhesion MDA-MB-436,[4],1.3
same,Relative Cell Adhesion MDA-MB-231,[5],2.6
same,"Uptake compared to peptide 1, MDA-MB-468",[6]; [13],123 fold
same,Mean Fluorescence Intensity ± SD MDA-MB-468,[6],8384 ± 735
same,Mean Fluorescence Intensity ± SD MDA-MB-436,[7],41 ± 27
same,"Uptake compared to peptide 1, MDA-MB-231",[8]; [13],47 fold
same,Mean Fluorescence Intensity ± SD MDA-MB-231,[8],1978 ± 522
same,"FITC positive cells, no competitor",[9]; rounded value,99%
same,Decrease in fluorescence / FITC positive cells in the presence of 20-fold excess EGF protein,[9]; EGF 20 μM,97%
same,FITC positive cells in the presence of 20-fold excess EGF protein,"[9]; EGF 20 μM, rounded value",2%
"FITC-AβYHWYGYTPQNVI [FITC-1, reference compound]",Decrease in fluorescence in the presence of 100-fold excess unlabeled peptide 1,[9]; unlabeled peptide 1 100 μM,19.5%
"Peptide 1: previously reported EGFR targeting dodecapeptide GE11 (YHWYGYTPQNVI), lead peptide [reference compound]",Stability in the presence of human serum (in words),[1],short half-life
same,Mean Fluorescence Intensity ± SD MDA-MB-468,[6],68 ± 45
same,Mean Fluorescence Intensity ± SD MDA-MB-436,[7],105 ± 11
same,Mean Fluorescence Intensity ± SD MDA-MB-231,[8],42 ± 8
"cyclic WXEAAYQkFL (head to tail) [N- to C terminal cyclized analogue of breast cancer targeting peptide 18–4, k is D-lysine]",Uptake by the breast cancer cells compared to the linear peptide (in words),[10],higher uptake
same,Stability toward proteolytic degradation (in words),[11],stable toward proteolytic degradation
"{FITC-βAla}-YHWYGYTPENVI-OH (GE11 analogue, Q9E; also called peptide FITC-22; FITC-22; source: synthetic peptide (Fmoc-SPPS, RP-HPLC purified)) [FITC-labeled soluble peptide 22]","percent FITC positive cells, with 20-fold excess EGF",[12],2%
